Assay results as given in US20150359866A1, “TREATMENT OF CERVICAL AND RELATED […] TOPICAL IMMUNOMODULATORS” (THE JOHNS HOPKINS UNIVERSITY, priority 2014, published 2015).

System: CIN2/3 lesions associated with HPV genotypes other than HPV16
Test: Clinical trial of topical imiquimod on CIN 2/3 lesions (lesion regression)
Assay type: in vivo, human
Text: Treatment protocol. In an embodiment, patients are screened at their initial colposcopic evaluation for referral for evaluation of high grade pap smears. Immunocomptetent patients with biopsy-confirmed CIN2/3 which is HPV16 negative will be eligible for enrollment. Both treatment and control groups will be assessed for histologic diagnosis at week 15, change in cervical quantitative HPV viral load, safety, toxicity, tolerability, and for measures of local mucosal immune responses. Patients will be given imiquimod (5%) or vehicle at Day 0, week 4, and week 8 and then histological diagnosis is determined at week 15.
Imiquimod administration on the lesion at each vaccination. In an embodiment, patients received a total of three applications of imiquimod directly on the cervical lesion, one application at the time of each vaccination. One single use packet containing 250 mg of 5% imiquimod was used for each treatment. After insertion of a vaginal speculum, the cream is applied directly to the lesion by the PI, using a cotton-tipped applicator. The speculum is withdrawn, and a tampon is placed as a medication barrier. Patients will be instructed to leave the tampon in place for about 4 to 6, and no more than 10 hours. […]
Clinical trial results. […] Subjects were monitored for mucosal irritation. […]

## CC(C)Cn1cnc2c(N)nc3ccccc3c21 [imiquimod, 1-(2-methylpropyl)-1H-imidazo[4,5-c]quinolin-4-amine]
FIG. 4, untreated rate in same timeframe 30-40%
  rate of regression relative to untreated HPV16-negative CIN2/3 patients: nearly double
HPV16-negative subjects, 12.5 mg imiquimod in 250 mg cream applied to the cervical lesion three times at four-week intervals, assessed eight weeks after third application, 10/16 subjects
  rate of regression of CIN2/3 lesions: 62.5%
